Measured values as given in patent publication US10414734B2, “5-hydroxyalkylbenzimidazoles as mIDH1 inhibitors” (BAYER PHARMA AKTIENGESELLSCHAFT, priority 2015, dated 2019).

What follows are molecules tested against IDH1 R132H enzyme (Homo sapiens (Human), UniProt O75874, R132H) (assay: Mutant IDH1 R132H biochemical assay). Details: luminescent NADPH consumption readout; 1.5 nM enzyme, 1 μM NADPH, 250 μM α-KG, 30 min, 32° C.
Experimental: Mutant IDH1 R132H Biochemical Assay
mIDH1 catalyzes the NADPH-dependent reduction of alpha-ketoglutarate (α-KG) to (2R)-2-hydroxyglutarate (2-HG). NADPH consumption was measured by luminescent readout.
The biochemical reactions were performed at 32° C. in 384-well plates using a reaction volume of 41 μL and the following assay buffer conditions: 50 mM Tris pH 7.5, 100 mM NaCl, 20 mM MgCl2, 0.05% BSA, 0.01% Brij, 1 μM NADPH, and 250 μM α-KG. The IDH1 R132H enzyme was used in a final concentration of 1.5 nM. Test compounds were used in a concentration range between 0.002 and 10 μM. The final DMSO concentration was 2.4%.
The reaction was incubated for 30 minutes, then 40 μL of detection mix (0.75 μg/ml Luciferase, 0.02 U/ml Oxidoreductase, 4 μg/mL FMN, 2 μL/ml decanal/ethanol, 50 mM Tris pH 7.5, 0.5% Glycerin, 0.01% Tween-20, 0.05% BSA) was added. Luminescence was measured on a luminescent reader (10 seconds measuring time, 1 second integration period, 30% sensitivity). The decrease in luminescence is proportional to mIDH1 activity. IC50 values are determined by interpolation from plots of relative luminescence versus inhibitor concentration.

Sequence of IDH1 R132H enzyme (O75874 whole entry R132H): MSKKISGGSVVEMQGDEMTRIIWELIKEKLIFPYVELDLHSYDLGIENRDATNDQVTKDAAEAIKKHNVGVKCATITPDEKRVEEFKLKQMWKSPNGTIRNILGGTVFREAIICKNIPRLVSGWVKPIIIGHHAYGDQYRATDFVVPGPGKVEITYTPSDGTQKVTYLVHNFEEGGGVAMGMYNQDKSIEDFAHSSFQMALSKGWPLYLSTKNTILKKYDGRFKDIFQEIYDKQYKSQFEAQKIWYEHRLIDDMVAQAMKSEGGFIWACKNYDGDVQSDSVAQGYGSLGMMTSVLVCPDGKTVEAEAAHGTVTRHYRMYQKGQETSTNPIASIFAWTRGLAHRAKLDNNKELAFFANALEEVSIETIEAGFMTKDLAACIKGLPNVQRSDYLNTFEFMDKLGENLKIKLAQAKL

Row | IC50 [nM] | Structure (SMILES)
1 | 60 | CC(C)c1ccc(Nc2nc3cc(CC(C)(C)O)ccc3n2[C@@H]2C[C@H](C)CC[C@H]2C(C)C)cc1 [Example 2-16, 1-{1-[(1R,2S,5R)-2-isopropyl-5-methylcyclohexyl]-2-[(4-isopropyl-phenyl)amino]-1H-benzimidazol-5-yl}-2-methylpropan-2-ol]
2 | 20 | COc1cc2c(cc1CC(C)(C)O)nc(Nc1ccc(OC(F)(F)F)cc1)n2[C@H]1C[C@@H](C)CC(C)(C)C1 (racemic) [Example 2-9, (±) 1-(6-methoxy-2-{[4-(trifluoromethoxy)phenyl]amino}-1-[(cis)-3,3,5-trimethylcyclohexyl]-1H-benzimidazol-5-yl)-2-methylpropan-2-ol]
3 | 160 | CC(C)Oc1ccc(Nc2nc3cc(CC(C)(C)O)ccc3n2[C@@H]2C[C@H](C)CC[C@H]2C(C)C)cc1 [Example 2-17, 1-{2-[(4-isopropoxyphenyl)amino]-1-[(1R,2S,5R)-2-isopropyl-5-methylcyclohexyl]-1H-benz-imidazol-5-yl}-2-methylpropan-2-ol]
4 | 120 | CC(C)c1ccc(Nc2nc3cc(C(C)(C)O)ccc3n2[C@@H]2C[C@H](C)CC[C@H]2C(C)C)cc1 [Example 2-14, 2-{1-[(1R,2S,5R)-2-isopropyl-5-methylcyclohexyl]-2-[(4-isopropyl-phenyl)amino]-1H-benzimidazol-5-yl}propan-2-ol]
5 | 240 | C[C@@H]1C[C@H](n2c(Nc3ccc(OC(F)(F)F)cc3)nc3cc(CC(C)(C)O)c(F)cc32)CC(C)(C)C1 (racemic) [Example 2-10, (±) 1-(6-fluoro-2-{[4-(trifluoromethoxy)phenyl]amino}-1-[(cis)-3,3,5-trimethylcyclohexyl]-1H-benzimidazol-5-yl)-2-methylpropan-2-ol]
6 | 100 | CC(C)[C@@H]1CC[C@@H](C)C[C@H]1n1c(Nc2ccc(OC(F)(F)F)cc2)nc2cc(CCC(C)(C)O)ccc21 [Example 2-18, 4-(1-[(1R,2S,5R)-2-isopropyl-5-methylcyclohexyl]-2-{[4-(trifluoro-methoxy)phenyl]amino}-1H-benz-imidazol-5-yl)-2-methylbutan-2-ol]
7 | 80 | CC(C)[C@@H]1CC[C@@H](C)C[C@H]1n1c(Nc2ccc(OC(F)(F)F)cc2)nc2cc(C(C)(C)O)ccc21 [Example 2-13, 2-(1-[(1R,2S,5R)-2-isopropyl-5-methylcyclohexyl]-2-{[4-(trifluoromethoxy)phenyl]-amino}-1H-benzimidazol-5-yl)propan-2-ol]
8 | 30 | Cc1cc2c(cc1CC(C)(C)O)nc(Nc1ccc(OC(F)(F)F)cc1)n2[C@H]1C[C@@H](C)CC(C)(C)C1 (racemic) [Example 2-8, (±) 2-methyl-1-(6-methyl-2-{[4-(trifluoromethoxy)phenyl]amino}-1-[(cis)-3,3,5-trimethylcyclohexyl]-1H-benzimidazol-5-yl)propan-2-ol]
9 | 10 | Cc1cc2c(cc1CC(C)(C)O)nc(Nc1ccc(OC(F)(F)F)cc1)n2[C@H]1C[C@@H](C)CC(C)(C)C1 (single isomer, unassigned; enantiomer b) [Example 2-8-2, 2-methyl-1-(6-methyl-2-{[4-(trifluoromethoxy)phenyl]amino}-1-[(cis)-3,3,5-trimethylcyclohexyl]-1H-benzimidazol-5-yl)propan-2-ol, enantiomer B]
10 | 300 | CC(C)Oc1ccc(Nc2nc3cc(CCC(C)(C)O)ccc3n2[C@@H]2C[C@H](C)CC[C@H]2C(C)C)cc1 [Example 2-20, 4-{2-[(4-isopropoxyphenyl)amino]-1-[(1R,2S,5R)-2-isopropyl-5-methylcyclohexyl]-1H-benzimidazol-5-yl}-2-methylbutan-2-ol]
11 | 20 | Cc1cc2c(cc1C(C)(C)O)nc(Nc1ccc(OC(F)(F)F)cc1)n2[C@H]1C[C@@H](C)CC(C)(C)C1 (single isomer, unassigned; enantiomer b) [Example 2-3-2, 2-(6-methyl-2-{[4-(trifluoromethoxy)phenyl]amino}-1-[(cis)-3,3,5-trimethylcyclohexyl]-1H-benzimidazol-5-yl)propan-2-ol, enantiomer B]
12 | 120 | Cc1cc2c(cc1CC(C)(C)O)nc(Nc1ccc(OC(F)(F)F)cc1)n2[C@H]1C[C@@H](C)CC(C)(C)C1 (single isomer, unassigned; enantiomer a) [Example 2-8-1, 2-methyl-1-(6-methyl-2-{[4-(trifluoromethoxy)phenyl]amino}-1-[(cis)-3,3,5-trimethylcyclohexyl]-1H-benzimidazol-5-yl)propan-2-ol, enantiomer A]
13 | 80 | Cc1cc2c(cc1C(C)(C)O)nc(Nc1ccc(OC(F)(F)F)cc1)n2[C@H]1C[C@@H](C)CC(C)(C)C1 (single isomer, unassigned; enantiomer a) [Example 2-3-1, 2-(6-methyl-2-{[4-(trifluoromethoxy)phenyl]amino}-1-[(cis)-3,3,5-trimethylcyclohexyl]-1H-benzimidazol-5-yl)propan-2-ol, enantiomer A]
14 | 210 | C[C@@H]1C[C@H](n2c(Nc3ccc(OC(F)(F)F)cc3)nc3cc(CCC(C)(C)O)ccc32)CC(C)(C)C1 (single isomer, unassigned; enantiomer a) [Example 2-11-1, 2-methyl-4-(2-{[4-(trifluoromethoxy)phenyl]amino}-1-[(cis)-3,3,5-trimethylcyclohexyl]-1H-benzimidazol-5-yl)butan-2-ol, enantiomer A]
15 | 10 | COc1cc2c(cc1CC(C)(C)O)nc(Nc1ccc(OC(F)(F)F)cc1)n2[C@H]1C[C@@H](C)CC(C)(C)C1 (single isomer, unassigned; enantiomer b) [Example 2-9-2, 1-(6-methoxy-2-{[4-(trifluoromethoxy)phenyl]amino}-1-[(cis)-3,3,5-trimethylcyclohexyl]-1H-benzimidazol-5-yl)-2-methylpropan-2-ol, enantiomer B]
16 | 30 | COc1cc2c(cc1CC(C)(C)O)nc(Nc1ccc(OC(F)(F)F)cc1)n2[C@H]1C[C@@H](C)CC(C)(C)C1 (single isomer, unassigned; enantiomer a) [Example 2-9-1, 1-(6-methoxy-2-{[4-(trifluoromethoxy)phenyl]amino}-1-[(cis)-3,3,5-trimethylcyclohexyl]-1H-benzimidazol-5-yl)-2-methylpropan-2-ol, enantiomer A]
17 | 290 | CC(C)c1ccc(Nc2nc3cc(CCC(C)(C)O)ccc3n2[C@@H]2C[C@H](C)CC[C@H]2C(C)C)cc1 [Example 2-19, 4-{1-[(1R,2S,5R)-2-isopropyl-5-methylcyclohexyl]-2-[(4-isopropyl-phenyl)amino]-1H-benzimidazol-5-yl}-2-methylbutan-2-ol]
18 | 40 | CC(C)[C@@H]1CC[C@@H](C)C[C@H]1n1c(Nc2ccc(OC(F)(F)F)cc2)nc2cc(CC(C)(C)O)ccc21 [Example 2-15, 1-(1-[(1R,2S,5R)-2-isopropyl-5-methylcyclohexyl]-2-{[4-(trifluoro-methoxy)phenyl]amino}-1H-benz-imidazol-5-yl)-2-methylpropan-2-ol]
19 | 50 | COc1cc2c(cc1CCC(C)(C)O)nc(Nc1ccc(OC(F)(F)F)cc1)n2[C@H]1C[C@@H](C)CC(C)(C)C1 (single isomer, unassigned; enantiomer a) [Example 2-12-1, 4-(6-methoxy-2-{[4-(trifluoromethoxy)phenyl]amino}-1-[(cis)-3,3,5-trimethylcyclohexyl]-1H-benzimidazol-5-yl)-2-methylbutan-2-ol, enantiomer A]
20 | 320 | C[C@@H]1C[C@H](n2c(Nc3ccc(OC(F)(F)F)cc3)nc3cc(CC(C)(C)O)c(F)cc32)CC(C)(C)C1 (single isomer, unassigned; enantiomer a) [Example 2-10-1, 1-(6-fluoro-2-{[4-(trifluoromethoxy)phenyl]amino}-1-[(cis)-3,3,5-trimethylcyclohexyl]-1H-benzimidazol-5-yl)-2-methylpropan-2-ol, enantiomer A]
21 | 10 | COc1cc2c(cc1CCC(C)(C)O)nc(Nc1ccc(OC(F)(F)F)cc1)n2[C@H]1C[C@@H](C)CC(C)(C)C1 (single isomer, unassigned; enantiomer b) [Example 2-12-2, 4-(6-methoxy-2-{[4-(trifluoromethoxy)phenyl]amino}-1-[(cis)-3,3,5-trimethylcyclohexyl]-1H-benzimidazol-5-yl)-2-methylbutan-2-ol, enantiomer B]

Row | Structure (SMILES) | IC50 [nM]
22 | C[C@@H]1C[C@H](n2c(Nc3ccc(OC(F)(F)F)cc3)nc3cc(CO)ccc32)CC(C)(C)C1 (single isomer, unassigned; enantiomer b) [Example 2-1-2, (2-{[4-(trifluoromethoxy)phenyl]amino}-1-[(cis)-3,3,5-trimethylcyclohexyl]-1H-benzimidazol-5-yl)methanol, enantiomer B] | 70
23 | COc1cc2c(cc1C(C)(C)O)nc(Nc1ccc(OC(F)(F)F)cc1)n2[C@H]1C[C@@H](C)CC(C)(C)C1 (racemic) [Example 2-7, (±) 2-(6-methoxy-2-{[4-(trifluoromethoxy)phenyl]amino}-1-[(cis)-3,3,5-trimethylcyclohexyl]-1H-benzimidazol-5-yl)propan-2-ol] | 20
24 | COc1cc2c(cc1CO)nc(Nc1ccc(OC(F)(F)F)cc1)n2[C@H]1C[C@@H](C)CC(C)(C)C1 (racemic) [Example 2-6, (±) (6-methoxy-2-{[4-(trifluoromethoxy)phenyl]amino}-1-[(cis)-3,3,5-trimethylcyclohexyl]-1H-benzimidazol-5-yl)methanol] | 20
